Experimental data: patent publication US20200129570A1, “Specific Bacterial Species and Metabolite That Improves Immune Checkpoint Inhibitor Therapy Efficacy” (BOARD OF REGENTS, THE UNIVERSITY OF TEXAS SYSTEM, priority 2017, published 2020)
“And” between values parts separate entries of the source, which are not always exact repeats. Equal values may be shown once. “Also recorded” adds a separate entry of the source.

Tested on: unresectable or metastatic melanoma
Test: Single-site correlative study: RECIST v1.1 response to immune checkpoint inhibitor therapy (ICT) in metastatic melanoma patients
Format: in vivo, human
Details: for RECIST Category / Change in tumor size (%): individual metastatic melanoma patient, one line per patient; for Change in tumor size (%): RECIST v1.1; for number of patients who responded: monotherapy, metastatic melanoma
Procedure: Patients and Methods. The study design was a single-site, correlative study of the effects of gut microbiota and metabolites on ICT efficacy in 39 patients. The study was approved by the University of Texas Southwestern Medical Center Institutional Review Board (IRB # STU012016-056). The study was conducted in accordance with the Declaration of Helsinki. The inventors enrolled patients with a histologic diagnosis of unresectable or metastatic melanoma that were scheduled to begin ICT and able to collect stool specimens, store them in a freezer and deliver them to the University of Texas Southwestern Cancer Center facility. In addition, patients had to have measurable disease by Response Evaluation Criteria in Solid Tumors (RECIST) v1.1. Tumor sizes were evaluated within 4 weeks prior to beginning therapy by exams, CT scans, and/or MRIs. […] After informed consent, stool samples were collected and immediately frozen until transferred to the University of Texas Southwestern Medical Center at pretreatment and various times post-therapy. Repeat exams and scans were obtained every 2-3 months. Demographics, antibiotic use, and probiotic exposure were recorded for each patient. Patient response, stable disease and progression were evaluated by RECIST v1.1 criteria as reported.

Row | Substance | RECIST Category | Change in tumor size (%) | number of patients who responded | RECIST responders (patients/treated) (metastatic melanoma patients)
1 | nivolumab | Response | −70% | One | –
2 | pembrolizumab | Progression; also recorded: Response; also recorded: Stable | 53% and 81% and −36% and −68% and 100% (2×) and −27% and −14% and 0% and 125% and 46% and −48% and 131% | – | 3/13
3 | ipilimumab | Response | −100% | One | –
